Source: patent US9573939B2, “Substituted benzofuran compounds and methods of use thereof for the treatment of viral diseases” (priority 2011, dated 2017)

Experiments:
HCV replicon genotype 1b = assay: microbe, parasite or virus in culture; assay type: cell-based; settings: Hepatitis C virus; HCV genotype 1b replicon cells; 96 hours incubation; replicon-encoded NS3/4A protein by ELISA; percentage of DMSO control
HCV replicon genotype 1a = assay: microbe, parasite or virus in culture; assay type: cell-based; settings: Hepatitis C virus; HCV genotype 1a replicon cells; 96 hours incubation; replicon-encoded NS3/4A protein by ELISA; percentage of DMSO control

Row | SMILES | IC50 (HCV replicon genotype 1b) | IC50 (HCV replicon genotype 1a)
1 | CNC(=O)c1c(-c2ccc(F)cc2)oc2cc(N(C)S(C)(=O)=O)c(-c3ccc4ncn(-c5ccc(F)cc5)c4c3)cc12 [Compound 15] | 20.2 nM | 338 nM
2 | CNC(=O)c1c(-c2ccc(F)cc2)oc2cc(N(C)S(C)(=O)=O)c(-c3ccc4c(c3)ncn4-c3ccccc3)cc12 [Compound 22] | 2.9 nM | 25.3 nM
3 | CNC(=O)c1c(-c2ccc(F)cc2)oc2cc(N(C)S(C)(=O)=O)c(-c3ccc4c(c3)ncn4-c3cccnc3)cc12 [Compound 23] | – | 24.1 nM
4 | CNC(=O)c1c(-c2ccc(F)cc2)oc2cc(N(C)S(C)(=O)=O)c(-c3ccc4ncn(CCO)c4c3)cc12 [Compound 28] | 75.7 nM | 755 nM
5 | CNC(=O)c1c(-c2ccc(F)cc2)oc2cc(N(C)S(C)(=O)=O)c(-c3ncc4ncn(-c5ccc(OC(F)(F)F)cc5)c4n3)cc12 [Compound 29, 2-(4-fluorophenyl)-N-methyl-6-(N-methylmethylsulfonamido)-5-(9-(4-(trifluoromethoxy)phenyl)-9H-purin-2-yl)benzofuran-3-carboxamide] | – | > 1000 nM
6 | CNC(=O)c1c(-c2ccc(F)cc2)oc2cc(N(C)S(C)(=O)=O)c(-c3ncc4ncn(-c5ccc(C#N)cc5)c4n3)cc12 [Compound 32] | – | > 1000 nM
7 | CNC(=O)c1c(-c2ccc(F)cc2)oc2cc(N(C)S(C)(=O)=O)c(-c3ccc4[nH]c(-c5ccccc5)cc4c3)cc12 [Compound 39] | – | > 1000 nM
8 | CNC(=O)c1c(-c2ccc(F)cc2)oc2cc(N(C)S(C)(=O)=O)c(-c3ccc4cnn(-c5ccc(Cl)cc5)c4c3)cc12 [Compound 52] | 6.9 nM | 6 nM
